# In US7432050B2, “Methods and compositions for detecting colon cancers” (Case Western Reserve University, priority 2001, dated 2008):
# “Also recorded” adds a separate entry of the source.
# Tested on: HLTF expression
# Test: RT-PCR assay for HLTF expression reactivation after 5-azacytidine treatment
# Assay type: cell-based, human
# Experimental: The cultures were grown and treated as described previously (Veigl, et al., 1998, Proc. Natl. Acad. Sci. USA, 95:8698-8702). The optimal tolerated doses were determined for each treated line, and two doses were used for some lines, ranging from 1 μg/ml to 3 μg/ml.
# To establish that methylation was responsible for silencing HLTF gene expression, cell lines with HLTF DNA methylation were treated with 5-azacytidine (5-azaC), a demethylating agent.
compound,measurement,setting,value
"Nc1ncn([C@@H]2O[C@H](CO)[C@@H](O)[C@H]2O)c(=O)n1 [5-azaC, 5-azacytidine]",reactivation of HLTF expression,"colon cancer cell lines with HLTF DNA methylation (RCA, V457, SW480, V5, V6, V432), 1 μg/ml to 3 μg/ml",reactivates HLTF expression; also recorded: reactivated HLTF expression in all these cell lines
same,change of HLTF expression in control cell lines,"control cell lines with constitutive HLTF expression and unmethylated HLTF DNA (V429, V503)",did not further increase HLTF expression
